Results reported in patent US5324633A, “Method and apparatus for measuring binding affinity” (Affymax Technologies N.V., priority 1991, dated 1994).
Like-named read-outs stand apart in the source and are kept apart here. Where no end group is shown, it is not given here.

Key:
Herz antibody [1] = test: Binding affinity of fluorescein-labelled receptor to surface-bound peptide, confocal fluorescence intensity at varying receptor concentrations
Text: At step 104 the array or arrays of polymers are exposed to a receptor at a first solution concentration [R]1. According to some embodiments the receptor is marked with an appropriate label such as a fluorescein tag. Fluorescent tags are preferred because the measurements herein are usually taken with a receptor solution in contact with the immobilized ligands to ensure that the immobilized ligand are in equilibrium with the receptor. […] Confocal microscopy provides one preferred method of distinguishing between surface receptor fluorescence and background fluorescence from bulk solution receptors, due to the limited depth of field of a confocal microscope. Because the microscope cannot completely exclude fluorescence from bulk solution, contributions of the bulk fluorescence can be eliminated by comparing areas of derivatized and underivatized substrates. This method for eliminating background fluorescence may not be accurate at high receptor concentrations, when non-specific receptor binding to underivatized substrates becomes non-negligible.
At step 106 the array of the polymers is exposed to the receptor, for a time sufficient to allow receptor-ligand interaction, preferably to equilibrium conditions, and at step 108 the fluorescence intensity of the receptor at each of the concentrations [R]n is determined for each of the ligands on each array. […]
At step 110 this information is fit to analysis equations or otherwise processed for determination of the binding affinity of the receptor to the various ligands on the substrate and at step 112 the Kd values, among others, are extracted. In a most preferred embodiment the data are used to determine binding affinity by determining the slope of a best fit line through a plot having, on the y-axis, the ratio of fluorescence intensity to receptor concentration and, on the x-axis, the fluorescence intensity. […] To faciltate comparison to other experiments, one can plot normalized fluorescence intensity on the y axis or receptor concentration on the x axis. […]

Herz antibody [2] = details: solution, comparison value, cited from earlier work

| Substance | Kd (Herz antibody [1]; sequences synthesized on different chips, exposed to Herz antibody, read-out: Kd / binding affinity from isotherms (FIG. 6)) [nM] | Kd (Herz antibody [2]; read-out: binding affinity value from other solution experiments) [nM] | binding affinity by interpolating plot of relative fluorescence intensity vs log10 receptor concentration (FIG. 5) (Herz antibody [1]; interpolated between 10^-8 M and 10^-9 M curves, peptide synthesized as free peptide then immobilized on surface) | Kd from slope of best fit line, ratio of fluorescence intensity to receptor concentration vs fluorescence intensity (FIG. 4) (Herz antibody [1]; peptide synthesized on substrate, equilibrium over about 24 hours, non-derivatized substrate background subtracted) [nM] | Kd (Herz antibody [2]; read-out: Kd value from other solution experiments) [nM] |
| --- | --- | --- | --- | --- | --- |
| YGTFL (not fully specified) | ~700 | 500 |  |  |  |
| YGGFL |  |  | about 1.8×10^-8 M | 18 | 10 |
